Assay results taken from publication PMC6658524, “Lysosomal degradation of newly formed insulin granules contributes to β cell failure in diabetes” (Nature Communications, 2019).

Tests used:
p38α = molecular target: T1, p38α (Homo sapiens, UniProt Q16539); assay: biochemical; set-up: Kinase inhibition by mobility shift assay (Caliper)
T1 construct: gene MAPK14

mTOR = mTOR (Homo sapiens, UniProt P42345); assay: 60-kinase selectivity panel, % inhibition at […]; assay type: biochemical
PKD1 = molecular target: T2, PKD1 (Homo sapiens, UniProt Q15139); assay: biochemical; set-up: Kinase inhibition by mobility shift assay (Caliper)
T2 construct: gene PRKD1

p38γ (SAPK3) [1] = molecular target: T3, p38γ (SAPK3) (Homo sapiens, UniProt P53778); assay: mobility shift assay (Caliper); confirmed in 60-kinase panel, % inhibition at […]; assay type: biochemical
T3 construct: gene MAPK12
T3 sequence (P53778 whole entry): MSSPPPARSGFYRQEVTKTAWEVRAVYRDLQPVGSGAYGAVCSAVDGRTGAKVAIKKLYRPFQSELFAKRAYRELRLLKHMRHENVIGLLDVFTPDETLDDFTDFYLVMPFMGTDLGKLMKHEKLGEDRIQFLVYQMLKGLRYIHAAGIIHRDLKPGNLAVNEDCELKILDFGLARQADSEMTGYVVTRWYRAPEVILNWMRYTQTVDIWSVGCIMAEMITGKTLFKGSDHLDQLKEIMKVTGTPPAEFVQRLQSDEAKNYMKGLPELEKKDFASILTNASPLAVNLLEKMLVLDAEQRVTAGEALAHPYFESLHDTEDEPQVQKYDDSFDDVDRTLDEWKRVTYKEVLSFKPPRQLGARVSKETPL

p38δ = molecular target: T4, p38δ (Homo sapiens, UniProt O15264); assay: biochemical; set-up: Kinase inhibition by mobility shift assay (Caliper)
T4 construct: gene MAPK13

p38γ (SAPK3) [2] = molecular target: T3, p38γ (SAPK3); assay: biochemical; set-up: Kinase inhibition by mobility shift assay (Caliper)
TrkA(h) = molecular target: T5, TrkA(h) (Homo sapiens, UniProt P04629); assay: biochemical; set-up: Eurofins KinaseProfiler panel of 60 kinases, per cent inhibition
T5 construct: gene NTRK1
T5 sequence (P04629 whole entry): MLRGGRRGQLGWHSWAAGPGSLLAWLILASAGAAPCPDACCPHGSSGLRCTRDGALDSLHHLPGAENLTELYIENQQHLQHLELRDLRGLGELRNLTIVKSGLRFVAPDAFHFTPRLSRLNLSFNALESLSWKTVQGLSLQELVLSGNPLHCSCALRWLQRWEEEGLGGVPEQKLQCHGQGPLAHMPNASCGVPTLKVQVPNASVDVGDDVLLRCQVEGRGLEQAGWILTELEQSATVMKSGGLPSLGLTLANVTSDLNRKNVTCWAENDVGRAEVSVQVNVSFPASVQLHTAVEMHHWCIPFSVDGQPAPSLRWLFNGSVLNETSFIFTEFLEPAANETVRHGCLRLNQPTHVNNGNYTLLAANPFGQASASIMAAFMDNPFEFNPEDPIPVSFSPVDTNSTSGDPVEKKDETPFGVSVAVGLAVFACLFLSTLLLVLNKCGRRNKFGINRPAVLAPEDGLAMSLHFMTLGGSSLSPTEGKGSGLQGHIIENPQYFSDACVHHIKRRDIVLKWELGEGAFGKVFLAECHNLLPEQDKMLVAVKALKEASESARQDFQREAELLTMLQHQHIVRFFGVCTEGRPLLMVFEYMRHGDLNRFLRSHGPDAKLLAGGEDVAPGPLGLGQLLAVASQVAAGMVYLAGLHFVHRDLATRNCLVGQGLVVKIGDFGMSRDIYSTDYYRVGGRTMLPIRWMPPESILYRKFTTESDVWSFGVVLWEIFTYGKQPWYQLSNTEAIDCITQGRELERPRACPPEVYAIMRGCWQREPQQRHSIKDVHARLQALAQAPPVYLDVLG
Text: (§1) A more detailed account of the discovery, chemistry and biochemical properties of this novel class of selective p38δ inhibitors will be given elsewhere.

PKA(h) = molecular target: T6, PKA(h) (Homo sapiens, UniProt P17612); assay: biochemical; set-up: Eurofins KinaseProfiler panel of 60 kinases, per cent inhibition
T6 construct: gene PRKACA
Text: as §1

Hck(h) activated = Hck(h) activated (Homo sapiens, UniProt P08631); assay: biochemical; set-up: Eurofins KinaseProfiler panel of 60 kinases, per cent inhibition
Hck(h) activated, sequence (P08631 whole entry): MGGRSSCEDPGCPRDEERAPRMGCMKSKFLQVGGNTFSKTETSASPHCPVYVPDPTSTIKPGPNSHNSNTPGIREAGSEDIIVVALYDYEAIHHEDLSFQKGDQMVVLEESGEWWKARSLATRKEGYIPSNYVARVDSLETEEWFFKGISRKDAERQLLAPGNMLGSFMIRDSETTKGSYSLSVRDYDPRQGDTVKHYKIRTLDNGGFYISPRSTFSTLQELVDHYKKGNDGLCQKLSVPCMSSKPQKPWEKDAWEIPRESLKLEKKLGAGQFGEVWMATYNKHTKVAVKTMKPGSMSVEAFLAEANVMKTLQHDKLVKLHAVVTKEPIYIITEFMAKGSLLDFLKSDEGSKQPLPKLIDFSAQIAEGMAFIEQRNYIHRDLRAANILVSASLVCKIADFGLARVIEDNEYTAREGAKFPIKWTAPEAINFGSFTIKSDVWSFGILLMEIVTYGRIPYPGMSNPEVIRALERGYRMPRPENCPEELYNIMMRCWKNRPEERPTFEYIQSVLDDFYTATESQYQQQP
Text: as §1

BrSK2(h) = BrSK2(h) (Homo sapiens, UniProt Q8IWQ3); assay: biochemical; set-up: Eurofins KinaseProfiler panel of 60 kinases, per cent inhibition
BrSK2(h), sequence (Q8IWQ3 whole entry): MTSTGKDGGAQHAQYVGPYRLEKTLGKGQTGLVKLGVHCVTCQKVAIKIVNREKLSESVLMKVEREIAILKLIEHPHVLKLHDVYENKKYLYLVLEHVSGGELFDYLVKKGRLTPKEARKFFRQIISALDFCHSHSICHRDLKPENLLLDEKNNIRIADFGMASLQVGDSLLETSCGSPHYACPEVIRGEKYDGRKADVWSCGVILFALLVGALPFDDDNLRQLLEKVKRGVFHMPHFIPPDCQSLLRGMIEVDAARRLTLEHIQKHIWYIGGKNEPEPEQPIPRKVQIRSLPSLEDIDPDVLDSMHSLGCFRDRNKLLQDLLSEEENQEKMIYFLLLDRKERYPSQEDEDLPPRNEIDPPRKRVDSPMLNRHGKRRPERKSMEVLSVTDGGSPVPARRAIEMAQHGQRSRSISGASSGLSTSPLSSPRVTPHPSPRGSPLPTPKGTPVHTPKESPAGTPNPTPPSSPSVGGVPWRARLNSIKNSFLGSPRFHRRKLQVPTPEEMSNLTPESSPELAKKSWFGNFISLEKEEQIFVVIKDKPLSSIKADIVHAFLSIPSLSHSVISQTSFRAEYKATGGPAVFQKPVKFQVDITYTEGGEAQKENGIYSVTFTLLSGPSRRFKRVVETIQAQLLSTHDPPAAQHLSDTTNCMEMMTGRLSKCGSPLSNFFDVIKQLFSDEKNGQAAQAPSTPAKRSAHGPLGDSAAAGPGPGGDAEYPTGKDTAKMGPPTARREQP
Text: as §1

PEK(h) = molecular target: T7, PEK(h) (Homo sapiens, UniProt Q9NZJ5); assay: biochemical; set-up: Eurofins KinaseProfiler panel of 60 kinases, per cent inhibition
T7 construct: gene EIF2AK3
T7 sequence (Q9NZJ5 whole entry): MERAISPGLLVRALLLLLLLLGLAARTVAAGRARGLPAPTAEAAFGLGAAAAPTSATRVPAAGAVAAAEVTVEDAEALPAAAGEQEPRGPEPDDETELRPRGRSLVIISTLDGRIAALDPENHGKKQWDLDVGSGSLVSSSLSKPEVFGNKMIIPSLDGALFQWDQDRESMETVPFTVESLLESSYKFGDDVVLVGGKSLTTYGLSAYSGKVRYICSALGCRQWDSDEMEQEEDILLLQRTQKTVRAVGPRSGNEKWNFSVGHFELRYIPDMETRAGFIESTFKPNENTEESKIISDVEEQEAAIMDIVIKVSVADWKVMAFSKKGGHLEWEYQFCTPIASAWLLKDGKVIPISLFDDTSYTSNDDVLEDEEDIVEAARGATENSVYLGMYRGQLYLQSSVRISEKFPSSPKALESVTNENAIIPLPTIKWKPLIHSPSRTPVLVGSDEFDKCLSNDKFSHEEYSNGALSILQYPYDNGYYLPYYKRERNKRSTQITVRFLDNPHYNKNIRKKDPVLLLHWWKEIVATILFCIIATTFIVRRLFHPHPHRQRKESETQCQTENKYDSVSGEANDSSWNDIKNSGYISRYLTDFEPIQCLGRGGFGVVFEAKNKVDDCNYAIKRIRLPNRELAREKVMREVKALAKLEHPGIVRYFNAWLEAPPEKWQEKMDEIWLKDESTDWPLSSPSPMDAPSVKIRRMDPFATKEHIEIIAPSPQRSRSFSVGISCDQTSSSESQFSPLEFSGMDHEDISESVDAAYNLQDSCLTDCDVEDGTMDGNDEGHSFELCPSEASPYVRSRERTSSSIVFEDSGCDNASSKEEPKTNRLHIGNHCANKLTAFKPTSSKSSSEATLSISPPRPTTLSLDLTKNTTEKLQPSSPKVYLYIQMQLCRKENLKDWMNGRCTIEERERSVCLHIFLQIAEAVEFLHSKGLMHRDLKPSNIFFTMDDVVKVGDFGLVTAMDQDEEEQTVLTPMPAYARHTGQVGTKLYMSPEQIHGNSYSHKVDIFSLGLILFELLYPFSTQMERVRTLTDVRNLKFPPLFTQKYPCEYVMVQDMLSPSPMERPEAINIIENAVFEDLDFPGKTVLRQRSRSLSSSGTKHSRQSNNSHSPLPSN
Text: as §1

ALK(h) = ALK(h) (Homo sapiens, UniProt Q9UM73); assay: biochemical; set-up: Eurofins KinaseProfiler panel of 60 kinases, per cent inhibition
Text: as §1

BTK(h) = BTK(h) (Homo sapiens, UniProt Q06187); assay: biochemical; set-up: Eurofins KinaseProfiler panel of 60 kinases, per cent inhibition
Text: as §1

IR(h) = molecular target: T8, IR(h) (Homo sapiens, UniProt P06213); assay: biochemical; set-up: Eurofins KinaseProfiler panel of 60 kinases, per cent inhibition
T8 construct: gene INSR
Text: as §1

KDR(h) = KDR(h) (Homo sapiens, UniProt P35968); assay: biochemical; set-up: Eurofins KinaseProfiler panel of 60 kinases, per cent inhibition
Text: as §1

GSK3α(h) = molecular target: T9, GSK3α(h) (Homo sapiens, UniProt P49840); assay: biochemical; set-up: Eurofins KinaseProfiler panel of 60 kinases, per cent inhibition
T9 construct: gene GSK3A
T9 sequence (P49840 whole entry): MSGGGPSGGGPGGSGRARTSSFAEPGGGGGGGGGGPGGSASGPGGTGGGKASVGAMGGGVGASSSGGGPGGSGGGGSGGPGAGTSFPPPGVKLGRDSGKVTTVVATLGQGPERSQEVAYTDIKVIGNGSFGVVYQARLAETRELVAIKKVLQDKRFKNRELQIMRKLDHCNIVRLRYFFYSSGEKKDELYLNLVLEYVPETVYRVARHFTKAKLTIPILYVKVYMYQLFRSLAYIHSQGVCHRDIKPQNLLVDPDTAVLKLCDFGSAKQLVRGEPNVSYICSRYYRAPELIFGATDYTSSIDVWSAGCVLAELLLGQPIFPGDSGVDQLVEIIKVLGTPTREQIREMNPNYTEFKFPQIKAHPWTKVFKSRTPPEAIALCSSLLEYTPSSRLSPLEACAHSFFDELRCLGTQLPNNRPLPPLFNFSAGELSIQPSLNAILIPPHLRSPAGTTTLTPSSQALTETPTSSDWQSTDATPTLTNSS
Text: as §1

FGFR1(h) = FGFR1(h) (Homo sapiens, UniProt P11362); assay: biochemical; set-up: Eurofins KinaseProfiler panel of 60 kinases, per cent inhibition
Text: as §1

cKit(h) = molecular target: T10, cKit(h) (Homo sapiens, UniProt P10721); assay: biochemical; set-up: Eurofins KinaseProfiler panel of 60 kinases, per cent inhibition
T10 construct: gene KIT
T10 sequence (P10721 whole entry): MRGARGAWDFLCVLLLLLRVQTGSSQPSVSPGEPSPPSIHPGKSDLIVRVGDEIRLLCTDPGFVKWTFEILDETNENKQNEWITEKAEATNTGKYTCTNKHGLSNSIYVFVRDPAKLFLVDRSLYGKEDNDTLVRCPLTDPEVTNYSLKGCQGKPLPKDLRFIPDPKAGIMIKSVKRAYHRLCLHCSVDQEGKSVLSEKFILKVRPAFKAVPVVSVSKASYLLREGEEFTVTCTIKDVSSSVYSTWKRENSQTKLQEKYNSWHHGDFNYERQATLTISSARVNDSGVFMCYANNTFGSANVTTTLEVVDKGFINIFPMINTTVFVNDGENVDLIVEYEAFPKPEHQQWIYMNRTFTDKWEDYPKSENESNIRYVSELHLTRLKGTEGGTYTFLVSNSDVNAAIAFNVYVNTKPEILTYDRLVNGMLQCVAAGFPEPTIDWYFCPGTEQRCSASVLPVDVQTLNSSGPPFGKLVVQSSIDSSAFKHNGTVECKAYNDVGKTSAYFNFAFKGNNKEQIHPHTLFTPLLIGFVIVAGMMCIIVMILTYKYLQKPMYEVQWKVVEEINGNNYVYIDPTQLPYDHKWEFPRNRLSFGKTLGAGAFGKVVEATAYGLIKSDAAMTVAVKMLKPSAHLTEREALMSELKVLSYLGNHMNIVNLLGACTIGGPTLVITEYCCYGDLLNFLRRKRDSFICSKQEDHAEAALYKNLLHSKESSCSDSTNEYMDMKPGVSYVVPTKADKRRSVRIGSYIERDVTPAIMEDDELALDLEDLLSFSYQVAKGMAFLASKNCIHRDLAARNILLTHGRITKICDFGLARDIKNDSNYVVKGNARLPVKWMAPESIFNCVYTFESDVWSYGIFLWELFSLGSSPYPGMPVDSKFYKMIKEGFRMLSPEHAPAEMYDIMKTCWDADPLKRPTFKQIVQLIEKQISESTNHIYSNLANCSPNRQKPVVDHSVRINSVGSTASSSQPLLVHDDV
Text: as §1

EphA3(h) = EphA3(h) (Homo sapiens, UniProt P29320); assay: biochemical; set-up: Eurofins KinaseProfiler panel of 60 kinases, per cent inhibition
Text: as §1

## CCN1CCOc2nc(N3CCOCC3)nc(-c3ccc(NC(=O)OC)cc3)c2C1=O [Compound A]
p38α
  IC50: > 30000 nM
mTOR
  % inhibition at 10 μM: 48
PKD1
  IC50: > 30000 nM
p38γ (SAPK3) [1]
  % inhibition at 10 μM: 64
p38δ
  IC50: 380 nM
p38γ (SAPK3) [2]
  IC50: 710 nM
TrkA(h)
  inhibition at 1 µM: -21%
  inhibition at 10 µM: 5%
PKA(h)
  inhibition at 1 µM: -8%
  inhibition at 10 µM: -22%
Hck(h) activated
  inhibition at 1 µM: -5%
  inhibition at 10 µM: 5%
BrSK2(h)
  inhibition at 1 µM: 5%
  inhibition at 10 µM: 5%
PEK(h)
  inhibition at 1 µM: -12%
  inhibition at 10 µM: -11%
ALK(h)
  inhibition at 1 µM: 4%
  inhibition at 10 µM: 0%
BTK(h)
  inhibition at 1 µM: -1%
  inhibition at 10 µM: 0%
IR(h)
  inhibition at 1 µM: -21%
  inhibition at 10 µM: -14%
KDR(h)
  inhibition at 1 µM: -16%
  inhibition at 10 µM: -12%
GSK3α(h)
  inhibition at 1 µM: -9%
  inhibition at 10 µM: -7%
FGFR1(h)
  inhibition at 1 µM: 9%
  inhibition at 10 µM: 6%
cKit(h)
  inhibition at 1 µM: 4%
  inhibition at 10 µM: 6%
EphA3(h)
  inhibition at 1 µM: 8%
  inhibition at 10 µM: 12%
